For assay [1], the system named is Pseudomonas aeruginosa. Conditions: Pseudomonas aeruginosa MMX 103/ATCC 27853, range in parentheses; cited from earlier work.
The subject of another assay is Acinetobacter baumannii. In words: Broth microdilution MIC testing. Format: cell-based. Conditions: Acinetobacter baumannii MMX 1630/ATCC 19606, susceptible; for MIC: ATCC19606, read-out: Minimal Inhibitory Concentration. The protocol: (§1) Broth microdilution assay: Mueller Hinton II broth (MHB II, BBL, BD, catalog no. 212322; lot no. 5257869) was used for testing most aerobes.
(§2) MIC values were determined using a broth microdilution procedure described by CLSI, see reference (1). Automated liquid handlers (Multidrop 384, Labsystems, Helsinki, Finland; Biomek 2000 and Biomek FX, Beckman Coulter, Fullerton Calif.) were used to conduct serial dilutions and liquid transfers.
(§3) The wells in Columns 2 through 12 of two standard 96-well microdilution plates (Costar 3795, Corning Inc., Corning, N.Y.) were filled with 150 μL of diluent specific to the compound tested. Three hundred microliters of each comparator and investigational drug solution (40× or 100×) was added to one well in Column 1 of the plates. The Biomek 2000 was used to complete the serial transfers through Column 11. The wells of Column 12 contained no drug and were the organism growth control wells. These panels were the “mother plates.”
(§4) Because drugs were prepared at either 40× or 100×, the “daughter plates” were loaded with 185-188 μL of the appropriate test media for the tested organism, using the Multidrop 384 or by hand. The daughter plates were prepared on the Biomek FX instrument, which transferred 2-5 μL of drug solution from each well of a mother plate to the corresponding well of each daughter plate in a single step. The wells of the daughter plates ultimately contained 185-188 μL of broth appropriate to the organism, 2-5 μL of drug solution, and 10 μL of bacterial inoculum prepared in broth.
(§5) Standardized inoculum of each organism was prepared per CLSI methods, see reference (1). The inoculum for each organism was dispensed into sterile reservoirs divided by length (Beckman Coulter), and the Biomek 2000 was used to inoculate the plates. Daughter plates were placed on the Biomek 2000 work surface in reverse orientation so that inoculation took place from low to high drug concentration. The Biomek 2000 delivered 10 μL of standardized inoculum into each well. This yielded a final cell density in the daughter plates of approximately 5×10^5 CFU/mL.
(§6) Plates were stacked 3 high, covered with a lid on the top plate, placed in plastic bags, and incubated at 35° C. for approximately 18 to 20 hr. Following incubation, the microplates were removed from the incubator and viewed from the bottom using a plate viewer. […] The MIC was read and recorded as the lowest concentration of drug that inhibited visible growth of the organism.
A general note: In broth dilution the organism is exposed to a series of concentrations in liquid medium.

The subject of assay [2] is Stenotrophomonas maltophila. Nature of the assay: Broth microdilution MIC testing. Format: cell-based. Conditions: Stenotrophomonas maltophila MMX 4746, susceptible; for MIC: Stenotrophomonas sp. LMG 10879, read-out: Minimal Inhibitory Concentration. The protocol: as §1, §2, §3, §4, §5, §6
Assay [3] concerns Escherichia coli. Nature of the assay: Broth microdilution MIC testing. Conditions: for MIC: Escherichia coli, read-out: Minimal Inhibitory Concentration. Format: cell-based. The protocol: as §1, §2, §3, §4, §5, §6
The next assay deals with Enterobacter cloacae. In words: Broth microdilution MIC testing. Format: cell-based. Conditions: Enterobacter cloacae MMX 6089, susceptible; for MIC: read-out: Minimal Inhibitory Concentration. The protocol:
as §1, §2, §3, §4, §5, §6

For the next assay, the system named is Klebsiella pneumoniae. Nature of the assay: Broth microdilution MIC testing. Conditions: Klebsiella pneumoniae MMX 214/ATCC 13883, susceptible; for MIC: ATCC13883, read-out: Minimal Inhibitory Concentration. Format: cell-based. The procedure:
as §1, §2, §3, §4, §5, §6

The subject of assay [4] is Pseudomonas aeruginosa. Nature of the assay: Broth microdilution MIC testing. Format: cell-based. Conditions: Pseudomonas aeruginosa MMX 103/ATCC 27853, susceptible, QC; for MIC: ATCC27853, read-out: Minimal Inhibitory Concentration. The procedure: as §1, §2, §3, §4, §5, §6
Assay [5] deals with Escherichia coli. Conditions: Escherichia coli MMX 102/ATCC 25922, range in parentheses; cited from earlier work.
The test system of assay [6] is N. gonorrhoeae ATCC49226/MMX 683. Nature of the assay: Agar dilution MIC assay (Example 1). In kind it is cell-based, Neisseria gonorrhoeae. Conditions: Neisseria gonorrhoeae MMX 683/ATCC 49226, QC. The protocol: Neisseria gonococcus (N. gonorrhoeae) were assayed using a reference agar dilution method, see reference (2). Drug dilutions and drug-supplemented agar plates were prepared manually. Neisseria gonococcus was grown on Chocolate agar in a CO2 incubator overnight at 35° C. prior to assay. […] The MIC was read per CLSI guidelines, see reference (3).
(Agar dilution tests growth on a series of plates holding different concentrations.)

Where [7] appears, read: Escherichia coli MMX 102/ATCC 25922, QC strain.

Consider 7 molecules from patent US20210137948A1, “TREATMENT OF INFECTIONS CAUSED BY NEISSERIA GONOCOCCUS USING A HALOGENATED SALICYLANILIDE” (priority 2018, published 2021).

In brackets after ≈: the same amount, converted by molar mass. Read-outs that look alike come from different tables or passages of the source.

On to `NCC[C@H](O)C(=O)N[C@@H]1C[C@H](N)[C@@H](O[C@H]2O[C@H](CN)[C@@H](O)[C@H](O)[C@H]2O)[C@H](O)[C@H]1O[C@H]1O[C@H](CO)[C@@H](O)[C@H](N)[C@H]1O` [Amikacin], for which the figures for the “CLSI QC range of MIC” value in the assay with Pseudomonas aeruginosa [1] and in the assay on Escherichia coli [5] were “(1-4) μg/ml” and “(0.5-4) μg/ml”, respectively. Also, the MIC stood at 16 µg/mL (≈ 27.3 µM) in the assay with Acinetobacter baumannii; 2 µg/mL (≈ 3.42 µM) in assay [2]; 4 µg/mL (≈ 6.83 µM) in the assay with Escherichia coli [3] (ATCC25922); 0.5 µg/mL (≈ 0.854 µM) in the assay with Escherichia coli [3]; 1 µg/mL (≈ 1.71 µM) in the assay with Enterobacter cloacae; 0.5 µg/mL (≈ 0.854 µM) in the assay on Klebsiella pneumoniae. The MIC with Pseudomonas aeruginosa [4] was 2 µg/mL (≈ 3.42 µM).
With `CC(C)(O/N=C(\C(=O)N[C@@H]1C(=O)N2C(C(=O)[O-])=C(C[n+]3ccccc3)CS[C@H]12)c1csc(N)n1)C(=O)O` [Ceftazidime], the “CLSI QC range of MIC” value in the assay with Pseudomonas aeruginosa [1] was “(1-4) μg/ml”; in the assay with Escherichia coli [5] it was “(0.06-0.5) μg/ml”. Besides, the MIC worked out at 4 µg/mL (≈ 7.32 µM) with Acinetobacter baumannii; 4 µg/mL (≈ 7.32 µM) in [2]; 0.25 µg/mL (≈ 0.457 µM) in the assay with Escherichia coli [3] (ATCC25922); 0.12 µg/mL (≈ 0.22 µM) in the assay with Escherichia coli [3]; 8 µg/mL (≈ 14.6 µM) in the assay on Enterobacter cloacae; 0.5 µg/mL (≈ 0.915 µM) in the assay on Klebsiella pneumoniae. For the same molecule, the MIC with Pseudomonas aeruginosa [4] was determined as 1 µg/mL (≈ 1.83 µM).
Regarding `CC1=C(C(=O)O)N2C(=O)[C@@H](NC(=O)[C@H](N)c3ccccc3)[C@H]2SC1` [Cephalexin], the MIC in the assay on Acinetobacter baumannii is greater than 32 µg/mL; in assay [2], greater than 32 µg/mL; with Escherichia coli [3] (ATCC25922), 8 µg/mL (≈ 23 µM); with Escherichia coli [3] it was 8 µg/mL (≈ 23 µM); in the assay with Enterobacter cloacae it was greater than 32 µg/mL; with Klebsiella pneumoniae, 4 µg/mL (≈ 11.5 µM). Moreover, the MIC in the assay with Pseudomonas aeruginosa [4] was greater than 32 µg/mL.
Turning to `O=C(O)c1cn(C2CC2)c2cc(N3CCNCC3)c(F)cc2c1=O` [Ciprofloxacin], in assay [6] (ATCC49226, read-out: Minimal Inhibitory Concentration), the MIC was 0.004 µg/mL (≈ 0.0121 µM). Further, the “Minimal Inhibitory Concentration” value in assay [6] turned out to be 0.004 µg/mL.
As for `C[C@H]1c2cccc(O)c2C(=O)C2=C(O)[C@]3(O)C(=O)C(C(N)=O)=C(O)[C@@H](N(C)C)[C@@H]3[C@@H](O)[C@@H]21` [Doxycycline], the MIC with Acinetobacter baumannii is 0.5 µg/mL (≈ 1.13 µM); in assay [2], 0.5 µg/mL (≈ 1.13 µM); with Escherichia coli [3] (ATCC25922), 0.5 µg/mL (≈ 1.13 µM); in the assay on Escherichia coli [3], 0.25 µg/mL (≈ 0.563 µM); with Enterobacter cloacae it was 1 µg/mL (≈ 2.25 µM); in the assay with Klebsiella pneumoniae, 1 µg/mL (≈ 2.25 µM). Moreover, in the assay with Pseudomonas aeruginosa [4], the MIC is greater than 8 µg/mL. Further, the “Minimal Inhibitory Concentration” value (with Acinetobacter baumannii; in [2]) was 0.5 µg/mL in each case.
Turning to `C[C@H]1COc2c(N3CCN(C)CC3)c(F)cc3c(=O)c(C(=O)O)cn1c23` [Levofloxacin], the MIC in the assay with Acinetobacter baumannii was determined as 0.5 µg/mL (≈ 1.38 µM); in [2] it was 0.5 µg/mL (≈ 1.38 µM); with Escherichia coli [3] (ATCC25922) it was 0.015 µg/mL (≈ 0.0415 µM); with Enterobacter cloacae, 0.03 µg/mL (≈ 0.083 µM); with Klebsiella pneumoniae it was 0.03 µg/mL (≈ 0.083 µM); in the assay on Pseudomonas aeruginosa [4], 1 µg/mL (≈ 2.77 µM). In addition, the “Minimal Inhibitory Concentration” value in the assay on Acinetobacter baumannii stood at 0.5 µg/mL; in assay [2] it was 0.5 µg/mL; in the assay with Escherichia coli [3] (setting [7]) it was 0.015 µg/mL; in the assay on Enterobacter cloacae, 0.03 µg/mL; in the assay on Klebsiella pneumoniae it was 0.03 µg/mL.
In the case of `C[C@@H](O)[C@H]1C(=O)N2C(C(=O)O)=C(S[C@@H]3CN[C@H](C(=O)N(C)C)C3)[C@H](C)[C@H]12` [Meropenem], the “CLSI QC range of MIC” value was “(0.12-1) μg/ml” in the assay on Pseudomonas aeruginosa [1] and “(0.008-0.06) μg/ml” with Escherichia coli [5]. Moreover, the MIC in the assay on Acinetobacter baumannii came to 1 µg/mL (≈ 2.61 µM); in assay [2], 2 µg/mL (≈ 5.22 µM); in the assay with Escherichia coli [3] (ATCC25922), 0.015 µg/mL (≈ 0.0391 µM); in the assay on Escherichia coli [3], 0.015 µg/mL (≈ 0.0391 µM); in the assay with Enterobacter cloacae it was 0.06 µg/mL (≈ 0.156 µM); in the assay with Klebsiella pneumoniae it was 0.03 µg/mL (≈ 0.0782 µM). In the assay on Pseudomonas aeruginosa [4], the MIC was 0.25 µg/mL (≈ 0.652 µM). The “Minimal Inhibitory Concentration” value in the assay with Escherichia coli [3] (setting [7]) was 0.015 µg/mL; with Escherichia coli [3] (Escherichia coli MMX 120, acrAB efflux pump knockout), 0.015 µg/mL; with Klebsiella pneumoniae, 0.03 µg/mL; with Pseudomonas aeruginosa [4], 0.25 µg/mL.
